The values below come from patent US20260285857A1, “BICYCLIC AND HETEROCYCLIC AMIDE COMPOUNDS” (priority 2024, published 2026).

This test concerns immunoglobulin light chain protein WIL-FL T46L. As to the kind of experiment: Differential scanning fluorimetry (thermal shift) assay. To be noted: Table A; temperature shift [Tm]compound-[Tm]vehicle; recombinant WIL-FL T46L. The test is classed as binding.

In the case of `Cc1cc(N2CC[C@](C)(c3ccccc3)C2)cn2nc(C(=O)NC3CC4(C3)CC(N3CC5C(C3)C5C(N)=O)C4)nc12` (some centres unmarked) [Compound 367], the DSF result is listed as “***** (>2.5° C.=*****)”.
The entry for `Cc1cc(N2CC[C@](C)(c3ccccc3)C2)cn2nc(C(=O)NC3CC4(C3)CC(N3CC5C(C3)C5c3nn[nH]n3)C4)nc12` (some centres unmarked) [Compound 368] is “***** (>2.5° C.=*****)”; for `Cc1cc(N2CC[C@](C)(c3ccccc3)C2)cn2nc(C(=O)NC3CC4(C3)CC(N3C[C@@H](O)[C@@H](O)C3)C4)nc12` (some centres unmarked) [Compound 369] it is “***** (>2.5° C.=*****)”; for `Cc1cc(N2CC[C@](C)(c3ccccc3)C2)cn2nc(C(=O)N3CCC4(CC3)CC(N3CC5C(C3)C5C(=O)O)CO4)nc12` (some centres unmarked) [Compound 370] it is “***** (>2.5° C.=*****)”.
Next, `Cc1cc(N2CC[C@](C)(c3ccccc3)C2)cn2nc(C(=O)NC3CC4(C3)CN(C3CC(C)(C(=O)O)C3)C4)nc12` (some centres unmarked) [Compound 371]: “***** (>2.5° C.=*****)”; `COC(=O)C1C2CN(C3CCC34CC(NC(=O)c3nc5c(C)cc(N6CC[C@](C)(c7ccccc7)C6)cn5n3)C4)CC21` (some centres unmarked) [Compound 372]: “***** (>2.5° C.=*****)”; `COC(=O)C1CCN(C2CCC23CC(NC(=O)c2nc4c(C)cc(N5CC[C@](C)(c6ccccc6)C5)cn4n2)C3)CC1` (some centres unmarked) [Compound 373]: “***** (>2.5° C.=*****)”.
Next, `Cc1cc(N2CC[C@](C)(c3ccccc3)C2)cn2nc(C(=O)NC3CC4(CCC4N4CCC(C(=O)O)CC4)C3)nc12` (some centres unmarked) [Compound 374]: “***** (>2.5° C.=*****)”; `Cc1cc(N2CC[C@](C)(c3ccccc3)C2)cn2nc(C(=O)N3CCC4(C3)OCC4N3CC4C(C3)C4C(=O)O)nc12` (some centres unmarked) [Compound 375]: “***** (>2.5° C.=*****)”.
In the case of `Cc1cc(N2CC[C@](C)(c3ccccc3)C2)cn2nc(C(=O)N3CC[C@@]4(CCN(C5CCC(C(=O)O)CC5)C4)C3)nc12` (some centres unmarked) [Compound 376], the DSF entry is listed as “***** (>2.5° C.=*****)”.
The entry for `Cc1cc(N2CC[C@](C)(c3ccccc3)C2)cn2nc(C(=O)N3CCC4(CCN(C5CCC(C(=O)O)CC5)C4)C3)nc12` (some centres unmarked) [Compound 377] is “***** (>2.5° C.=*****)”; for `CCOC(=O)C1C2CN(C3CC4(CC(NC(=O)c5nc6c(C)cc(N7CC[C@](C)(c8ccccc8)C7)cn6n5)C4)C3)CC21` (some centres unmarked) [Compound 378] it is “***** (>2.5° C.=*****)”.
`Cc1cc(N2CC[C@](C)(c3ccccc3)C2)cn2nc(C(=O)NC3CC4(C3)CC(N3CC5C(C3)C5C(=O)O)C4)nc12` (some centres unmarked) [Compound 379]: the DSF entry was “***** (>2.5° C.=*****)”.
With `Cc1cc(N2CC[C@](C)(c3ccccc3)C2)cn2nc(C(=O)NC3CC4(C3)CC(N3CCCC(C(=O)O)C3)C4)nc12` (some centres unmarked) [Compound 380], the DSF entry is on record as “***** (>2.5° C.=*****)”.
Regarding `Cc1cc(N2CC[C@](C)(c3ccccc3)C2)cn2nc(C34CC(O)(CO3)C4)nc12` [Compound 381], the DSF entry is “***** (>2.5° C.=*****)”.
Next, `Cc1cc(N2CC[C@@](C)(c3cccc(F)c3)C2)cn2nc(C(=O)NCC(C)(C)O)nc12` [Compound 382]: “***** (>2.5° C.=*****)”; `Cc1cc(N2CCC(C)(c3cccc(F)c3)C2)cn2nc(C(=O)NC3CCOC3)nc12` (centres unmarked) [Compound 383]: “***** (>2.5° C.=*****)”.
`Cc1cc(N2CC[C@](C)(c3cccc(F)c3)C2)cn2nc(C(=O)NC3CC4(C3)CC(N3CC5C(C3)C5C(=O)O)C4)nc12` (some centres unmarked) [Compound 384]: the DSF result is listed as “***** (>2.5° C.=*****)”.
Next, `Cc1cc(N2CC[C@](C)(c3cccc(F)c3)C2)cn2nc(C(=O)N3CCC(C)(O)C3)nc12` (some centres unmarked) [Compound 385]: “***** (>2.5° C.=*****)”; `Cc1cc(N2CCC(C)(c3ccccc3)C2=O)cn2nc(C(=O)N3CC[C@@]4(CCN(c5cccc(C(=O)O)n5)C4)C3)nc12` (some centres unmarked) [Compound 386]: “** (>0.5-1 °C =**)”; `Cc1cc(N2CC(C)(c3ccccc3)CC2=O)cn2nc(C(=O)N3CC[C@@]4(CCN(c5cccc(C(=O)O)n5)C4)C3)nc12` (some centres unmarked) [Compound 387]: “** (>0.5-1 °C =**)”.
Take `Cc1cc(N2CCC(C)(c3ccc(F)cc3F)C2)cn2nc(C(=O)N3C[C@@H]4CN(c5cccc(C(=O)O)n5)C[C@@H]4C3)nc12` (some centres unmarked) [Compound 388]: the DSF entry is reported as “**** (>1.5-2.5° C.=****)”.
Next, `Cc1cc(N2CCC(C)(c3c(F)cccc3F)C2)cn2nc(C(=O)N3C[C@@H]4CN(c5cccc(C(=O)O)n5)C[C@@H]4C3)nc12` (some centres unmarked) [Compound 389]: “***** (>2.5° C.=*****)”; `CCC1(c2ccccc2)CN(c2cc(C)c3nc(C(=O)NC4CCN(c5cccc(C(=O)O)n5)CC4)nn3c2)C1` [Compound 390]: “***** (>2.5° C.=*****)”; `CCC1(c2ccccc2)CN(c2cc(CO)c3nc(C(=O)NC)nn3c2)C1` [Compound 391]: “***** (>2.5° C.=*****)”.
Next, `CCC1(c2ccccc2)CN(c2cc(CO)c3nc(C(=O)NC4CCN(c5cccc(C(=O)O)n5)CC4)nn3c2)C1` [Compound 392]: “***** (>2.5° C.=*****)”.
The entry for `CCC1(c2ccccc2)CN(c2cc(C)c3nc(C(=O)N4CC5CN(c6cccc(C(=O)O)n6)CC5C4)nn3c2)C1` (centres unmarked) [Compound 393] is “***** (>2.5° C.=*****)”.
As to `CCC1(c2ccccc2)CN(c2cc(C)c3nc(C(=O)N4CCC5(CCN(c6cccc(C(=O)O)n6)C5)C4)nn3c2)C1` (centres unmarked) [Compound 394], the DSF result is “***** (>2.5° C.=*****)”.
As for `CCC1(c2ccccc2)CN(c2cc(C)c3nc(C(=O)NC4CCN(c5ccnc(C(=O)O)c5)CC4)nn3c2)C1` [Compound 395], the DSF entry was “***** (>2.5° C.=*****)”.
Next, `CCC1(c2ccc(C)cc2)CN(c2cc(C)c3nc(C(=O)N4C[C@@H]5CN(c6cccc(C(=O)O)n6)C[C@@H]5C4)nn3c2)C1` [Compound 396]: “***** (>2.5° C.=*****)”; `CCC1(c2cccc(C)c2)CN(c2cc(C)c3nc(C(=O)N4C[C@@H]5CN(c6cccc(C(=O)O)n6)C[C@@H]5C4)nn3c2)C1` [Compound 397]: “***** (>2.5° C.=*****)”.
The entry for `Cc1cc(N2CC(C)(c3ccccc3)C2)cn2nc(C(=O)N3CC[C@@]4(CCN(c5cccc(C(=O)O)n5)C4)C3)nc12` [Compound 398] is “***** (>2.5° C.=*****)”; for `Cc1cc(N2CC(C)(c3ccccc3)C2)cn2nc(C(=O)N3C[C@@H]4CN(c5cccc(C(=O)O)n5)C[C@@H]4C3)nc12` [Compound 399] it is “***** (>2.5° C.=*****)”; for `Cc1cnc(C2(C)CCN(c3cc(C)c4nc(C(=O)N5CC6CN(c7cccc(C(=O)O)n7)CC6C5)nn4c3)C2)nc1` (centres unmarked) [Compound 400] it is “** (>0.5-1 °C =**)”.
The entry for `Cc1cc(N2CCC(C)(c3nn[nH]n3)C2)cn2nc(C(=O)N3C[C@@H]4CN(c5cccc(C(=O)O)n5)C[C@@H]4C3)nc12` (some centres unmarked) [Compound 401, 6-[5-[8-methyl-6-[3-methyl-3-(2H-tetrazol-5-yl)pyrrolidin-1-yl]-[1,2,4]triazolo[1,5-a]pyridine-2-carbonyl]-1,3,3a, 4,6,6a-hexahydropyrrolo[3,4-c]pyrrol-2-yl]pyridine-2-carboxylic acid] is “* (0-0.5° C.=*)”.
On to `COC(=O)c1cc(-n2nnc3c2CCN(C(=O)c2nc4c(C)cc(N5CC[C@](C)(c6ccccc6)C5)cn4n2)C3)ccn1` [Compound 402], for which the DSF result is “***** (>2.5° C.=*****)”.
Take `COC(=O)c1cccc(-c2nc3n(n2)CCN(C(=O)c2nc4c(C)cc(N5CC[C@](C)(c6ccccc6)C5)cn4n2)C3)n1` [Compound 403]: the DSF result is “***** (>2.5° C.=*****)”.
The entry for `Cc1cc(N2CC[C@](C)(c3ccccc3)C2)cn2nc(C(=O)N3CCn4nc(-c5cccc(C(=O)O)n5)nc4C3)nc12` [Compound 404] is “***** (>2.5° C.=*****)”.
As for `Cc1cc(N2CC[C@](C)(c3ccccc3)C2)cn2nc(C(=O)N3CCn4nc(-c5cc(C(=O)O)ccn5)nc4C3)nc12` [Compound 405], the DSF result is recorded as “***** (>2.5° C.=*****)”.
Next, `COC(=O)c1cccc(-c2nnc3n2CCN(C(=O)c2nc4c(C)cc(N5CC[C@](C)(c6ccccc6)C5)cn4n2)C3)n1` [Compound 406]: “***** (>2.5° C.=*****)”.
Next, `Cc1cc(N2CC[C@](C)(c3ccccc3)C2)cn2nc(C(=O)N3CCn4c(nnc4-c4ccnc(C(=O)O)c4)C3)nc12` [Compound 407]: “***** (>2.5° C.=*****)”.
As for `Cc1cc(N2CC[C@](C)(c3ccccc3)C2)cn2nc(C(=O)N3CCn4c(nnc4-c4cccc(C(=O)O)n4)C3)nc12` [Compound 408], the DSF result is “***** (>2.5° C.=*****)”.
Next, `COc1cccc([C@@]2(C)CCN(c3cc(C)c4nc(C(=O)N5CC[C@@]6(CCN(c7cccc(C(=O)O)n7)C6)C5)nn4c3)C2)c1` [Compound 409]: “***** (>2.5° C.=*****)”; `Cc1cc(N2CCC(C)(c3ccccc3O)C2)cn2nc(C(=O)N3CC[C@@]4(CCN(c5cccc(C(=O)O)n5)C4)C3)nc12` (some centres unmarked) [Compound 410]: “*** (>1-1.5° C.=***)”; `COc1ccc([C@@]2(C)CCN(c3cc(C)c4nc(C(=O)N5CC[C@@]6(CCN(c7cccc(C(=O)O)n7)C6)C5)nn4c3)C2)cc1` [Compound 411]: “***** (>2.5° C.=*****)”.
Take `Cc1cc(OC(C)c2ccc(F)c(Cl)c2)cn2nc(C(=O)N3CC[C@@]4(CCC(c5cccc(C(=O)O)n5)C4)C3)nc12` (some centres unmarked) [Compound 412]: the DSF result was “* (0-0.5° C.=*)”.
Next, `Cc1cc(N2CCC(C)(c3ccc(O)cc3)C2)cn2nc(C(=O)N3CC[C@@]4(CCN(c5cccc(C(=O)O)n5)C4)C3)nc12` (some centres unmarked) [Compound 413]: “**** (>1.5-2.5° C.=****)”; `Cc1ccc([C@@]2(C)CCN(c3cc(C)c4nc(C(=O)N5C[C@@H]6CN(c7cccc(C(=O)O)n7)C[C@@H]6C5)nn4c3)C2)cc1` [Compound 414]: “***** (>2.5° C.=*****)”; `Cc1cccc([C@@]2(C)CCN(c3cc(C)c4nc(C(=O)N5C[C@@H]6CN(c7cccc(C(=O)O)n7)C[C@@H]6C5)nn4c3)C2)c1` [Compound 415]: “***** (>2.5° C.=*****)”.
Next, `Cc1cccc([C@@]2(C)CCN(c3cc(C)c4nc(C(=O)N5CC[C@@]6(CCN(c7cccc(C(=O)O)n7)C6)C5)nn4c3)C2)c1` [Compound 416]: “***** (>2.5° C.=*****)”.
